The source made the active and inactive calls.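 How the source made its calls: active means compounds giving half or more protection of infected cells from virus-caused growth loss, again on retest; inactive means the rest.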 *1 amine or outer side, *2 acyl side, *3 side chain or, on linkers, in order; H or OH if unused. Where a SMILES comes first, the peptide text is derived from it. Bridges are numbered along the chain shown (N, C = ends). [ ]: non-standard residue; d: D form. The star is where a group is joined. X7 = NC(N)=NCC(O)CC(N[*:1])C(=O)[*:2]; X12 = O=C(C1CCCNN1[*:1])[*:2]; Orn = NCCC[CH](N)C(=O)O; For = O=C*
Tested on: CEM cells HIV-1 protection, formazan growth assay
Test: NCI AIDS Antiviral Assay
Conditions: for IC50: measured here: growth of uninfected CEM cells
Procedure, shortened: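 Protection of CEM cells against HIV-1 measured as cell growth via soluble formazan read-out, with five concentrations tested on both infected and uninfected cells; failure to protect may reflect toxicity.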

SMILES: Fc1cccc2c1[nH]c1c2ncc2[nH]c3ccccc3c21
- EC50: > 20 µM
- IC50: 6.92 µM

SMILES: CCOc1ccc2nc(NC(=O)C(=O)C(c3cnc4ccccc4n3)[N+](=O)[O-])sc2c1 (stereo unspecified)
- EC50: > 155 µM
- IC50: > 155 µM

SMILES: CC(=S)N=Cc1c(N)[nH]n(-c2ccccc2)c1=O
- EC50: > 200 µM
- IC50: > 200 µM

SMILES: [Cu+2].[Cu+2].[NH-]c1c(N=Nc2ccc(/C=C/c3ccc(N=Nc4cc(S(=O)(=O)[O-])c5cccc(S(=O)(=O)[O-])c5c4[NH-])cc3S(=O)(=O)[O-])c(S(=O)(=O)[O-])c2)cc(S(=O)(=O)[O-])c2cccc(S(=O)(=O)[O-])c12.[Na+]
- EC50: 10.5 µM
- IC50: 24 µM

SMILES: CCC(C)C(NC=O)C(=O)NC1C(=O)NC(CC(C)C)C(=O)NC(C(C)C)C(=O)N2NCCCC2C(=O)NC(CC(C)C)C(=O)N2NCCCC2C(=O)OC1C (stereo unspecified) (For-ITLV[X12]L[X12]; ester 2-C; configuration not given here)
- EC50: > 45.7 µM
- IC50: 25.1 µM

SMILES: O=C(O)c1ccccc1C(=O)Cc1ccccc1
- EC50: > 200 µM
- IC50: > 200 µM

SMILES: CSC1C=C(C(C)C)CCC1(C)SC (stereo unspecified)
- EC50: > 200 µM
- IC50: 39.8 µM

SMILES: Nc1ccccc1CN1C(=O)c2ccccc2C1=O
- EC50: > 200 µM
- IC50: 3.55 µM

SMILES: COc1cc(OC)c(OC)cc1/C=C\c1ccnc2ccccc12
- EC50: > 30.9 µM
- IC50: 1.48 µM

SMILES: O=C1CS(=O)(=O)C(c2ccc(Cl)cc2)N1N1C(=O)CS(=O)(=O)C1c1ccc(Cl)cc1 (stereo unspecified)
- EC50: > 200 µM
- IC50: 5.75 µM

SMILES: COC1OC(C)/C(=N/O)C2OC(C)(C)OC12 (stereo unspecified)
- EC50: > 1070 µM
- IC50: > 1070 µM

SMILES: COc1ccc(/C=C2\N=C(N/N=C\C(O)C(O)C(O)C(O)CO)NC2=O)cc1 (stereo unspecified)
- EC50: > 200 µM
- IC50: 107 µM

SMILES: COC(=O)C(Cc1ccc2c(c1)CCCC2)Cc1cc2c(cc1C(O)OC)CCC2 (stereo unspecified)
- EC50: > 200 µM
- IC50: 55 µM

SMILES: OCC1=CCN2C[C@@H](O)[C@@H](O)[C@@H]12
- EC50: > 200 µM
- IC50: > 200 µM

SMILES: COc1ccc2oc3c(C)cc4c(OC)nnc(OC)c4c3c2c1
- EC50: > 200 µM
- IC50: 12.6 µM

SMILES: O=C(Nc1ccc(Cl)cc1Cl)C1C(=O)OC2(CCCCC2)OC1=O
- EC50: > 200 µM
- IC50: 13.8 µM

SMILES: CN(C)c1ccc(/C=C2\CCc3ccccc3C2=O)cc1Br
- EC50: > 10.7 µM
- IC50: > 10.7 µM

SMILES: COC1CC(OC2C(C)OC(OC3C(C)OC(OC4C(C)OC(O[C@H]5CC[C@@]6(C)C(=CC[C@]7(O)[C@@H]6C[C@@H](O)[C@@]6(C)[C@]7(O)CC[C@@]6(O)C(C)=O)C5)CC4OC)CC3OC)CC2OC)OC(C)C1O (stereo partly specified)
- EC50: > 200 µM
- IC50: > 200 µM

SMILES: c1ccc(-c2nnc(-c3ccccn3)c3c2C[C@@H]2C[C@@H]4Cc5c(-c6ccccn6)nnc(-c6ccccn6)c5[C@@H]4[C@H]32)nc1
- EC50: > 200 µM
- IC50: > 200 µM

SMILES: NCCCN(CCCCN(CCCN)CCCc1ccccc1)CCCc1ccccc1
- outcome: inactive

SMILES: COC(=O)C(Cl)=C1CC1
- EC50: > 1700 µM
- IC50: 93.3 µM

SMILES: CC(=O)OC[C@]12[C@H](OC(C)=O)[C@H](OC(C)=O)[C@@H]3C(OC(C)=O)[C@@]14OC3(C)COC(=O)c1cccnc1CCC(C)C(=O)OC([C@H](OC(C)=O)[C@@H]2OC(=O)c1ccccc1)[C@]4(C)O (stereo partly specified)
- EC50: > 38.9 µM
- IC50: > 38.9 µM

SMILES: COc1ccc(C2C(Cl)C(=O)N2NC(=O)Cc2ccccc2)cc1OC (stereo unspecified)
- EC50: > 95.5 µM
- IC50: > 95.5 µM

SMILES: [O-]/N=N\c1on[n+](CCc2ccccc2)c1Cc1c(/N=N/[O-])on[n+]1CCc1ccccc1
- outcome: inactive

SMILES: Cc1ccc2c(c1)C1C(CO2)C(c2ccccc2)=NN1c1ccccc1 (stereo unspecified)
- EC50: > 105 µM
- IC50: > 105 µM

SMILES: CC1=CCN(C2CC(C)C(=O)N2)C1=O (stereo unspecified)
- outcome: inactive

SMILES: O=C1CCN2CCC(=O)c3cccc1c32
- outcome: inactive

SMILES: CCOC(=O)C1=C(Nc2ccc(Br)cc2)OC/C1=N\NC(=O)c1ccccc1O
- EC50: > 38.9 µM
- IC50: 3.98 µM

SMILES: O=S1(=O)OCCOS(=O)(=O)C1I
- EC50: > 759 µM
- IC50: 132 µM

SMILES: COC(=O)C1=C(C(=O)OC)C2(C3=C(C)C(=O)c4ccccc43)CCC1(C)O2 (stereo unspecified)
- EC50: > 97.7 µM
- IC50: 52.5 µM

SMILES: Cc1ccc(O)c(N=Nc2ccc(S(=O)(=O)O)cc2)n1
- outcome: inactive

SMILES: ClCc1c(-c2ccccc2)nn(-c2ccccc2)c1CCl
- EC50: > 200 µM
- IC50: 6.17 µM

SMILES: CC(=O)Oc1cc(OC(C)=O)c2c(c1)OC(c1ccc(OC(C)=O)c(OC(C)=O)c1)CC2=O (stereo unspecified)
- EC50: > 57.5 µM
- IC50: > 57.5 µM

SMILES: CNn1c(C)n[nH]c1=O
- EC50: > 200 µM
- IC50: > 200 µM

SMILES: CCOC(=O)/C(C(=S)Nc1ccccc1)=C(/N)N1CCCC1
- EC50: > 200 µM
- IC50: 53.7 µM

SMILES: O=[N+]([O-])c1ccc(C(Cl)C(Cl)c2ccc(C(Cl)C(Cl)c3ccc([N+](=O)[O-])cc3[N+](=O)[O-])cc2)c([N+](=O)[O-])c1 (stereo unspecified)
- EC50: > 12 µM
- IC50: 5.13 µM

SMILES: O=C(Cc1nc2ccc(C(=O)c3ccccc3)cc2[nH]c1=O)C(=O)Nc1ccc(C(F)(F)F)cc1[N+](=O)[O-]
- EC50: > 69.2 µM
- IC50: 47.9 µM

SMILES: O=c1c2ccccc2ncn1COCc1ccccc1
- EC50: > 200 µM
- IC50: > 200 µM

SMILES: O=C1NC2(C=Cc3c(ccc4ccccc34)O2)Oc2ccccc21 (stereo unspecified)
- EC50: > 11.5 µM
- IC50: > 11.5 µM

SMILES: Cc1ccc(C(=O)NC2C(=O)NC(C(C)C)C(=O)N3CCCC3C(=O)N(C)CC(=O)N(C)C(C(C)C)C(=O)OC2C)c2c1Oc1c(c(C(=O)NC3C(=O)NC(C(C)C)C(=O)N4CCCC4C(=O)N(C)CC(=O)N(C)C(C(C)C)C(=O)OC3C)c3nc(-c4ccccc4)c(=O)oc3c1C)N2 (stereo unspecified)
- EC50: > 19.1 µM
- IC50: 0.00794 µM

SMILES: COC(=O)c1ccccc1C1CN=NC12Cc1cccc(C)c1C2=O (stereo unspecified)
- EC50: > 200 µM
- IC50: 57.5 µM

SMILES: CCc1ccccc1NC(=O)CCc1nc(=S)[nH][nH]1
- EC50: > 912 µM
- IC50: > 912 µM

SMILES: CC(C)(O)CCCC1CCC2C3CCC4CCCCC4(C)C3CCC2(C)C1O (stereo unspecified)
- EC50: > 200 µM
- IC50: 9.33 µM

SMILES: CC(O)C(NC(=O)C(CCCN)NC(=O)C(CC(O)CN=C(N)N)NC(=O)C(N)CCCN=C(N)N)C(=O)NC(CCCN)C(=O)NC(CC(O)CN=C(N)N)C(=O)NC(Cc1ccc(O)cc1)C(=O)O (stereo unspecified) (H-R[X7][Orn]T[Orn][X7]Y-OH; configuration not given here)
- EC50: > 245 µM
- IC50: 174 µM

SMILES: Cc1cc(=O)oc2c(CNC(C(=O)O)C(C)O)c(O)ccc12 (stereo unspecified)
- EC50: > 200 µM
- IC50: > 200 µM

SMILES: COc1cc([C@@H]2c3cc4c(cc3C(N)C3COC(=O)[C@@H]32)OCO4)cc(OC)c1O (stereo partly specified)
- outcome: inactive

SMILES: Nc1ccc(C2SCC(=O)N2NS(=O)(=O)c2cccc(C(=O)O)c2)cc1 (stereo unspecified)
- EC50: 36.3 µM
- IC50: 132 µM

SMILES: O=C(CC1(O)C(=O)Nc2ccc([N+](=O)[O-])cc21)c1ccc(Br)cc1 (stereo unspecified)
- EC50: > 41.7 µM
- IC50: > 41.7 µM

SMILES: O=C(CC(=O)Nc1ccccc1)NNC(c1cc(N=Nc2ccc(Br)cc2)ccc1O)P(O)O (stereo unspecified)
- EC50: > 100 µM
- IC50: 3.98 µM

SMILES: Nc1nc(Cl)cc(NCC2(CO)CC(CCCc3ccccc3)C2)n1 (stereo unspecified)
- EC50: > 20 µM
- IC50: 0.0603 µM

SMILES: CC1=C(C#N)C(=C(C#N)C#N)OC1(C)Cc1ccccc1 (stereo unspecified)
- EC50: > 200 µM
- IC50: 112 µM

SMILES: O=C1Cc2c(-c3cccs3)cc(-c3ccccc3)nc2-c2ccccc2N1
- EC50: > 200 µM
- IC50: 46.8 µM

SMILES: CC(=O)NNC(=S)N/C=C(\C#N)C(=O)c1ccc2ccccc2c1
- EC50: > 200 µM
- IC50: > 200 µM

SMILES: CCOC(=S)SCCSC
- EC50: > 200 µM
- IC50: > 200 µM

SMILES: C[C@H](NC(=O)c1ccccc1SC(=O)CCCC[n+]1ccccc1)C(N)=O
- EC50: 0.933 µM
- IC50: > 100 µM

SMILES: O=c1sc2ccccc2c2c1C=CCO2
- EC50: > 46.8 µM
- IC50: > 46.8 µM

From PubChem BioAssay AID179 (DTP/NCI, 2004)
